The results in this text go back to ChEMBL document CHEMBL4706619, “Synthesis and identification of a novel derivative of salidroside as a selective, competitive inhibitor of monoamine oxidase B with enhanced neuroprotective properties” (Eur J Med Chem, 2021).

The subject of data set [1] is PC-12. Description: Neuroprotective activity against CoCl2-induced cytotoxicity in rat PC12 cells assessed as increase in cell viability at 1 uM pretreated with CoCl2 for 8 hrs followed by incubation with drug and measured after 24 hrs by MTT assay. It counts as functional, cell-based. A general note: Formazan colour is commonly taken as a measure of viable cells.
The subject of data set [2] is PC-12. Description: Neuroprotective activity against CoCl2-induced cytotoxicity in rat PC12 cells assessed as increase in cell viability pretreated with CoCl2 for 8 hrs followed by incubation with drug and measured after 24 hrs by MTT assay. It counts as functional, cell-based.
Data set [3] has as its target T1, Amine oxidase [flavin-containing] B (Homo sapiens, UniProt P27338).
T1 sequence (P27338 whole entry): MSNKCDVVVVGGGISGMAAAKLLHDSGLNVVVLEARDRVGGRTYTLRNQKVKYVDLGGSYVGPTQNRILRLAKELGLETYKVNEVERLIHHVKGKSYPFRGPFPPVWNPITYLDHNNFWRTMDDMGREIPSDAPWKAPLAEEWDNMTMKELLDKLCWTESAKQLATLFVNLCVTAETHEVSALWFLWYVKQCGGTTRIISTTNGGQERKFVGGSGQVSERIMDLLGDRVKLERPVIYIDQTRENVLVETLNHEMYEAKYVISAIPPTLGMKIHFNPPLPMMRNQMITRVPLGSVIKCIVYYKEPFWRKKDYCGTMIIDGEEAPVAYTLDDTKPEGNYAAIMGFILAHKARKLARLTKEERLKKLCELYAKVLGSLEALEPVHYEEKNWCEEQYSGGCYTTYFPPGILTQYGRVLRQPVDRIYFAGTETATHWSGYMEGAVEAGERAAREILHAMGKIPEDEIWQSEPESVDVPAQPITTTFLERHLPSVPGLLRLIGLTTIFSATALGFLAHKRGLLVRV
The data set is described as follows: Competitive inhibition of human recombinant MAO-B expressed in baculovirus infected BTI cells assessed as inhibition of 4-hydroxyquinoline formation using varying concentration of kynuramine as substrate preincubated with enzyme for 10 mins followed by addition of substrate and measured after 15 mins by Lineweaver-Burk plot analysis.

Data set [4] concerns PC-12. Description: Neuroprotective activity against CoCl2-induced cytotoxicity in rat PC12 cells assessed as increase in cell viability pretreated with CoCl2 for 8 hrs followed by incubation with drug and measured after 24 hrs by MTT assay relative to control. Format: functional.
A short description of data set [5]: n-Octanol/saturated water patition coefficient, logP of the compound at 0.05 mg/ml incubated for 24 hrs by HPLC analysis. It counts as physicochemical.
The target of data set [6] is T1, Amine oxidase [flavin-containing] B. The data set is described as follows: Inhibition of human recombinant MAO-B expressed in baculovirus infected BTI cells assessed as inhibition of 4-hydroxyquinoline formation using kynuramine as substrate preincubated with enzyme for 10 mins followed by addition of substrate and measured after 15 mins by fluorescence spectrophotometry.

For data set [7] the target is unchanged. The data set is described as follows: Inhibition of human recombinant MAO-B expressed in baculovirus infected BTI cells assessed as inhibition of 4-hydroxyquinoline formation using kynuramine as substrate preincubated with enzyme for 10 mins followed by addition of substrate and measured after 15 mins by fluorescence spectrophotometry relative to control. Particulars: 0.25 h, time 25 min, read-out: Imax.

Data set [8] has as its system Rattus norvegicus. Description: Inhibition of mitochondrial pathway of apoptosis in damaged cerebral hemisphere of middle cerebral artery occlusion-induced ischemia-reperfusion injury Sprague-Dawley rat model assessed as decrease in complement C3 protein expression at 25 mg/kg/day, ip administered for 2 days by western blot analysis. It counts as functional, organism-based. The conditions noted are these: time 2.0 day. A general note: Immunoblotting shows a protein as a band on a membrane.

The test system of data set [9] is Rattus norvegicus. The data set is described as follows: Neuroprotective activity against middle cerebral artery occlusion-induced ischemia-reperfusion injury Sprague-Dawley rat model assessed as decrease in cerebral infarct volume at 12.5 to 50 mg/kg/day, ip administered for 2 days by magnetic resonance imaging analysis. Format: functional, organism-based. The conditions noted are these: dose 12.5-50 mg/kg/day, time 2.0 day.

In data set [10] the test system is Rattus norvegicus. The data set is described as follows: Inhibition of mitochondrial pathway of apoptosis in damaged cerebral hemisphere of middle cerebral artery occlusion-induced ischemia-reperfusion injury Sprague-Dawley rat model assessed as increase in NeuN protein expression at 25 mg/kg/day, ip administered for 2 days by western blot analysis. Format: functional, organism-based. The conditions noted are these: time 2.0 day.

Data set [11] has as its system Rattus norvegicus. Description: Neuroprotective activity against middle cerebral artery occlusion-induced ischemia-reperfusion injury Sprague-Dawley rat model assessed as decrease in neurological deficit score administered ip for 2 days. Format: functional, organism-based. Particulars: dose 12.5-50 mg/kg/day, time 2.0 day.
The test system of data set [12] is Rattus norvegicus. The data set is described as follows: Ex vivo inhibition of MAO activity in infarcted cerebral hemisphere of middle cerebral artery occlusion-induced ischemia-reperfusion injury Sprague-Dawley rat model assessed as inhibition of 4-hydroxyquinoline formation using kynuramine as substrate at 25 mg/kg/day, ip for 2 days by fluorescence spectrophotometry. It counts as functional, organism-based. Particulars: time 2.0 day.

Data set [13] concerns Rattus norvegicus. The data set is described as follows: Inhibition of mitochondrial pathway of apoptosis in damaged cerebral hemisphere of middle cerebral artery occlusion-induced ischemia-reperfusion injury Sprague-Dawley rat model assessed as increase in ratio of Bcl-2 to Bax at 25 mg/kg/day, ip administered for 2 days by western blot analysis. Format: functional, organism-based. The conditions noted are these: time 2.0 day.

Active and inactive are the calls of the source. No cut-off for these calls is given here.

In the case of `C/C=C/C(=O)Oc1ccc(CCO[C@@H]2O[C@H](CO)[C@@H](O)[C@H](O)[C@H]2O)cc1`, the outcome in the data set on PC-12 [1] was Active.

In the case of `COc1ccc(C(=O)Oc2ccc(CCO[C@@H]3O[C@H](CO)[C@@H](O)[C@H](O)[C@H]3O)cc2)cc1`, in the data set with PC-12 [1], the result was Active.

`O=C(OC[C@H]1O[C@@H](OCCc2ccc(O)cc2)[C@H](O)[C@@H](O)[C@@H]1O)c1ccccc1`: the result in the data set with PC-12 [1] was inactive.

Regarding `O=C(Oc1ccc(CCO[C@@H]2O[C@H](CO)[C@@H](O)[C@H](O)[C@H]2O)cc1)C1CCCCC1`, the outcome in the data set on PC-12 [1] was Active.

What is called EC50 is the concentration giving half of the maximal effect. What is called Ki is a measure of affinity in units of concentration, obtained from inhibition or displacement. What is called logP is a log measure of how a compound divides between an organic and an aqueous phase. High values mean higher lipophilicity, low ones lower lipophilicity. One may read the IC50 as the concentration that inhibits the measured activity by half. Consider `OC[C@H]1O[C@@H](OCCc2ccc(O)cc2)[C@H](O)[C@@H](O)[C@@H]1O` [SALIDROSIDE], for which, in the data set on PC-12 [2], the 50% effective concentration (EC50) amounted to 300 nM. Moreover, in [3], the Ki was found to be 920 nM. Also, the Emax in the data set on PC-12 [4] was found to be 27%; in data set [7], 52%. This molecule gave a logP in data set [5] (octanol/water, 24 h) of -0.89. Also, in the data set on PC-12 [1], the result was Active. For the same molecule, the IC50 in [6] amounted to 810 nM.

For the molecule `O=C(Oc1ccc(CCO[C@@H]2O[C@H](CO)[C@@H](O)[C@H](O)[C@H]2O)cc1)c1ccccc1`, the EC50 in the data set on PC-12 [2] is 38 nM. Also, the inhibition result in the data set with Rattus norvegicus [8], in the data set with Rattus norvegicus [10], in the data set with Rattus norvegicus [12] and in the data set on Rattus norvegicus [13] was “Active” throughout. The result in the data set with Rattus norvegicus [9] and in the data set with PC-12 [1] was Active. Moreover, in [3], the Ki was found to be 41 nM. Besides, the Emax with PC-12 [4] is 42%; in [7], 73.6%. Besides, in the data set on Rattus norvegicus [11], the Activity entry is “Dose-dependent effect”. The logP at 24 h in data set [5] (n-octanol/saturated water) is 1.44. Moreover, the IC50 in data set [6] was determined as 80 nM.

In the case of `Cc1ccccc1C(=O)Oc1ccc(CCO[C@@H]2O[C@H](CO)[C@@H](O)[C@H](O)[C@H]2O)cc1`, the outcome with PC-12 [1] was Active.

Consider `O=C(Oc1ccc(CCO[C@@H]2O[C@H](CO)[C@@H](O)[C@H](O)[C@H]2O)cc1)c1ccc(C(F)(F)F)cc1`, for which the result in the data set on PC-12 [1] was Active.

In the case of `O=C(Oc1ccc(CCO[C@@H]2O[C@H](CO)[C@@H](O)[C@H](O)[C@H]2O)cc1)c1cccc(F)c1`, in the data set with PC-12 [1], the outcome was Active.

With `CCCc1ccc(C(=O)Oc2ccc(CCO[C@@H]3O[C@H](CO)[C@@H](O)[C@H](O)[C@H]3O)cc2)cc1`, in the data set with PC-12 [1], the outcome was Active.

As for `O=C(Oc1ccc(CCO[C@@H]2O[C@H](CO)[C@@H](O)[C@H](O)[C@H]2O)cc1)c1ccc(CCl)cc1`, the outcome in the data set with PC-12 [1] was inactive.

As to `O=C(Oc1ccc(CCO[C@@H]2O[C@H](CO)[C@@H](O)[C@H](O)[C@H]2O)cc1)c1ccc2ccccc2c1`, the result with PC-12 [1] was inactive.

`C=CC(=O)Oc1ccc(CCO[C@@H]2O[C@H](CO)[C@@H](O)[C@H](O)[C@H]2O)cc1`: the result in the data set on PC-12 [1] was Active.

Consider `O=C(Oc1ccc(CCO[C@@H]2O[C@H](CO)[C@@H](O)[C@H](O)[C@H]2O)cc1)c1cccc(Cl)c1Cl`, for which the result with PC-12 [1] was inactive.

`O=C(Oc1ccc(CCO[C@@H]2O[C@H](CO)[C@@H](O)[C@H](O)[C@H]2O)cc1)c1c(Cl)cccc1Cl`: the result in the data set with PC-12 [1] was inactive.

As for `CC(=O)Oc1ccc(CCO[C@@H]2O[C@H](CO)[C@@H](O)[C@H](O)[C@H]2O)cc1`, in the data set on PC-12 [1], the outcome was Active.

Regarding `O=C(Oc1ccc(CCO[C@@H]2O[C@H](CO)[C@@H](O)[C@H](O)[C@H]2O)cc1)c1cccc(Cl)c1`, the result in the data set with PC-12 [1] was inactive.

`OC[C@H]1O[C@H](OCCc2ccc(O)cc2)[C@H](O)[C@@H](O)[C@@H]1O`: in the data set with PC-12 [1], the outcome was inactive.

On to `O=C(/C=C/c1ccccc1)Oc1ccc(CCO[C@@H]2O[C@H](CO)[C@@H](O)[C@H](O)[C@H]2O)cc1`, for which the result in the data set with PC-12 [1] was Active.

With `Cc1ccc(C(=O)Oc2ccc(CCO[C@@H]3O[C@H](CO)[C@@H](O)[C@H](O)[C@H]3O)cc2)cc1`, the result in the data set on PC-12 [1] was Active.

As to `O=S(=O)(Oc1ccc(CCO[C@@H]2O[C@H](CO)[C@@H](O)[C@H](O)[C@H]2O)cc1)c1ccccc1`, in the data set with PC-12 [1], the result was inactive.

Take `O=C(Oc1ccc(CCO[C@@H]2O[C@H](CO)[C@@H](O)[C@H](O)[C@H]2O)cc1)c1cccc(CCl)c1`: the outcome in the data set on PC-12 [1] was inactive.

For the molecule `CC(=O)OC[C@H]1O[C@@H](OCCc2ccc(O)cc2)[C@H](O)[C@@H](OC(C)=O)[C@@H]1O`, the outcome in the data set on PC-12 [1] was inactive.

Consider `CC(=O)OC[C@H]1O[C@@H](OCCc2ccc(O)cc2)[C@H](O)[C@@H](O)[C@@H]1O`, for which the outcome in the data set with PC-12 [1] was inactive.

Take `O=C(Oc1ccc(CCO[C@@H]2O[C@H](CO)[C@@H](O)[C@H](O)[C@H]2O)cc1)c1ccc(Cl)c(Cl)c1`: the result in the data set on PC-12 [1] was inactive.

For `CCc1ccc(C(=O)Oc2ccc(CCO[C@@H]3O[C@H](CO)[C@@H](O)[C@H](O)[C@H]3O)cc2)cc1`, in the data set with PC-12 [1], the outcome was Active.

Take `OC[C@H]1O[C@@H](O)[C@H](O)[C@@H](O)[C@@H]1O`: the result in the data set with PC-12 [1] was inactive.

Consider `Cc1cccc(C(=O)Oc2ccc(CCO[C@@H]3O[C@H](CO)[C@@H](O)[C@H](O)[C@H]3O)cc2)c1`, for which the result with PC-12 [1] was Active.

For `CCCCCCC(=O)Oc1ccc(CCO[C@@H]2O[C@H](CO)[C@@H](O)[C@H](O)[C@H]2O)cc1`, the result with PC-12 [1] was Active.

`OCCc1ccc(O)cc1`: the result in the data set with PC-12 [1] was inactive.
